Test results taken from ChEMBL document CHEMBL1255475, “Mutant prevention concentrations of four carbapenems against gram-negative rods” (2010).
≈ marks a conversion by molar mass, not a printed value.

Columns and labels:
[1] = system: Klebsiella pneumoniae; experiment: Ratio of mutant prevention concentration to minimum Inhibitory concentration for beta-lactamase-negative Klebsiella pneumoniae E418; assay type: functional
[2] = system: Klebsiella pneumoniae; experiment: Ratio of mutant prevention concentration to minimum Inhibitory concentration for beta-lactamase-positive ESBL-positive Klebsiella pneumoniae E476; assay type: functional
[3] = system: Klebsiella pneumoniae; experiment: Ratio of mutant prevention concentration to minimum Inhibitory concentration for beta-lactamase-positive ESBL-negative Klebsiella pneumoniae E473; assay type: functional
[4] = system: Escherichia coli; experiment: Ratio of mutant prevention concentration to minimum Inhibitory concentration for beta-lactamase-positive ESBL-positive Escherichia coli E459; assay type: functional
[5] = system: Escherichia coli; experiment: Ratio of mutant prevention concentration to minimum Inhibitory concentration for beta-lactamase-negative Escherichia coli E347; assay type: functional
[6] = system: Klebsiella pneumoniae; experiment: Ratio of mutant prevention concentration to minimum Inhibitory concentration for beta-lactamase-negative Klebsiella pneumoniae E362; assay type: functional
[7] = system: Escherichia coli; experiment: Ratio of mutant prevention concentration to minimum Inhibitory concentration for beta-lactamase-negative Escherichia coli E346; assay type: functional
[8] = system: Escherichia coli; experiment: Ratio of mutant prevention concentration to minimum Inhibitory concentration for beta-lactamase-positive ESBL-negative Escherichia coli E484; assay type: functional
[9] = system: Escherichia coli; experiment: Ratio of mutant prevention concentration to minimum Inhibitory concentration for beta-lactamase-positive ESBL-positive Escherichia coli E450; assay type: functional
[10] = system: Escherichia coli; experiment: Ratio of mutant prevention concentration to minimum Inhibitory concentration for beta-lactamase-positive ESBL-negative Escherichia coli E437; assay type: functional
[11] = system: Escherichia coli; experiment: Ratio of mutant prevention concentration to minimum Inhibitory concentration for beta-lactamase-negative Escherichia coli E345; assay type: functional
[12] = system: Klebsiella pneumoniae; experiment: Ratio of mutant prevention concentration to minimum Inhibitory concentration for beta-lactamase-positive ESBL-negative Klebsiella pneumoniae E480; assay type: functional
[13] = system: Escherichia coli; experiment: Antibacterial activity against beta-lactamase-negative Escherichia coli E408 incubated up to 7 days by agar dilution method; assay type: functional; details: E408, 168 h
[14] = system: Escherichia coli; experiment: Antibacterial activity against beta-lactamase-negative Escherichia coli E346 incubated up to 7 days by agar dilution method; assay type: functional; details: E346, 168 h
[15] = system: Klebsiella pneumoniae; experiment: Ratio of mutant prevention concentration to minimum Inhibitory concentration for beta-lactamase-positive ESBL-negative Klebsiella pneumoniae E477; assay type: functional
[16] = system: Escherichia coli; experiment: Ratio of mutant prevention concentration to minimum Inhibitory concentration for beta-lactamase-negative Escherichia coli E424; assay type: functional
[17] = system: Escherichia coli; experiment: Antibacterial activity against beta-lactamase-negative Escherichia coli E344 incubated up to 7 days by agar dilution method; assay type: functional; details: E344, 168 h
[18] = system: Klebsiella pneumoniae; experiment: Ratio of mutant prevention concentration to minimum Inhibitory concentration for beta-lactamase-negative Klebsiella pneumoniae E417; assay type: functional
[19] = system: Klebsiella pneumoniae; experiment: Ratio of mutant prevention concentration to minimum Inhibitory concentration for beta-lactamase-positive ESBL-negative Klebsiella pneumoniae E474; assay type: functional
[20] = system: Escherichia coli; experiment: Ratio of mutant prevention concentration to minimum Inhibitory concentration for beta-lactamase-positive ESBL-positive Escherichia coli E452; assay type: functional
[21] = system: Klebsiella pneumoniae; experiment: Ratio of mutant prevention concentration to minimum Inhibitory concentration for beta-lactamase-positive ESBL-negative Klebsiella pneumoniae E472; assay type: functional
[22] = system: Klebsiella pneumoniae; experiment: Ratio of mutant prevention concentration to minimum Inhibitory concentration for beta-lactamase-negative Klebsiella pneumoniae E419; assay type: functional
[23] = system: Escherichia coli; experiment: Antibacterial activity against beta-lactamase-negative Escherichia coli E425 incubated up to 7 days by agar dilution method; assay type: functional; details: E425, 168 h
[24] = system: Escherichia coli; experiment: Ratio of mutant prevention concentration to minimum Inhibitory concentration for beta-lactamase-positive ESBL-positive Escherichia coli E458; assay type: functional
[25] = system: Klebsiella pneumoniae; experiment: Ratio of mutant prevention concentration to minimum Inhibitory concentration for beta-lactamase-positive ESBL-negative Klebsiella pneumoniae E507; assay type: functional
[26] = system: Escherichia coli; experiment: Ratio of mutant prevention concentration to minimum Inhibitory concentration for beta-lactamase-positive ESBL-positive Escherichia coli E456; assay type: functional
[27] = system: Escherichia coli; experiment: Ratio of mutant prevention concentration to minimum Inhibitory concentration for beta-lactamase-positive ESBL-negative Escherichia coli E483; assay type: functional
[28] = system: Acinetobacter baumannii; experiment: Antibacterial activity against Acinetobacter baumannii A867 assessed as mutant prevention concentration after overnight incubation; assay type: functional
[29] = system: Pseudomonas aeruginosa; experiment: Antibacterial activity against Pseudomonas aeruginosa P373 incubated up to 7 days by agar dilution method; assay type: functional; details: P373, 168 h
[30] = system: Acinetobacter baumannii; experiment: Antibacterial activity against Acinetobacter baumannii A898 incubated for 24 hrs by agar dilution method; details: A898, 24 h
[31] = system: Acinetobacter baumannii; experiment: Antibacterial activity against Acinetobacter baumannii A867 incubated for 24 h by agar dilution method; details: A867, 24 h
[32] = system: Acinetobacter baumannii; experiment: Antibacterial activity against Acinetobacter baumannii A894 incubated up to 7 days by agar dilution method; assay type: functional; details: A894, 168 h
[33] = system: Acinetobacter baumannii; experiment: Antibacterial activity against Acinetobacter baumannii A892 incubated for 24 h by agar dilution method; details: A892, 24 h
[34] = system: Acinetobacter baumannii; experiment: Antibacterial activity against Acinetobacter baumannii A884 incubated for 24 h by agar dilution method; details: A884, 24 h
[35] = system: Pseudomonas aeruginosa; experiment: Antibacterial activity against Pseudomonas aeruginosa P352 incubated up to 7 days by agar dilution method; assay type: functional; details: P352, 168 h
[36] = system: Acinetobacter baumannii; experiment: Antibacterial activity against Acinetobacter baumannii A865 assessed as mutant prevention concentration after overnight incubation; assay type: functional
[37] = system: Acinetobacter baumannii; experiment: Antibacterial activity against Acinetobacter baumannii A908 incubated for 24 h by agar dilution method; details: A908, 24 h
[38] = system: Acinetobacter baumannii; experiment: Antibacterial activity against Acinetobacter baumannii A910 incubated for 24 h by agar dilution method; details: A910, 24 h
[39] = system: Acinetobacter baumannii; experiment: Antibacterial activity against Acinetobacter baumannii A891 incubated up to 7 days by agar dilution method; assay type: functional; details: A891, 168 h
[40] = system: Pseudomonas aeruginosa; experiment: Antibacterial activity against Pseudomonas aeruginosa P363 incubated up to 7 days by agar dilution method; assay type: functional; details: P363, 168 h
[41] = system: Pseudomonas aeruginosa; experiment: Antibacterial activity against Pseudomonas aeruginosa P369 incubated up to 7 days by agar dilution method; assay type: functional; details: P369, 168 h
[42] = system: Pseudomonas aeruginosa; experiment: Antibacterial activity against Pseudomonas aeruginosa P319 incubated up to 7 days by agar dilution method; assay type: functional; details: P319, 168 h
[43] = system: Pseudomonas aeruginosa; experiment: Antibacterial activity against Pseudomonas aeruginosa P353 incubated up to 7 days by agar dilution method; assay type: functional; details: P353, 168 h
[44] = system: Pseudomonas aeruginosa; experiment: Antibacterial activity against Pseudomonas aeruginosa P322 incubated up to 7 days by agar dilution method; assay type: functional; details: P322, 168 h
[45] = system: Pseudomonas aeruginosa; experiment: Antibacterial activity against Pseudomonas aeruginosa P341 incubated up to 7 days by agar dilution method; assay type: functional; details: P341, 168 h
[46] = system: Pseudomonas aeruginosa; experiment: Antibacterial activity against Pseudomonas aeruginosa P332 incubated up to 7 days by agar dilution method; assay type: functional; details: P332, 168 h
[47] = system: Pseudomonas aeruginosa; experiment: Antibacterial activity against Pseudomonas aeruginosa P326 incubated up to 7 days by agar dilution method; assay type: functional; details: P326, 168 h
[48] = system: Acinetobacter baumannii; experiment: Antibacterial activity against Acinetobacter baumannii A896 incubated for 24 h by agar dilution method; details: A896, 24 h

C[C@@H](O)[C@H]1C(=O)N2C(C(=O)O)=C(S[C@@H]3CN[C@H](C(=O)Nc4cccc(C(=O)O)c4)C3)[C@H](C)[C@H]12
Ratio [1]: 2
Ratio [2]: 4
Ratio [3]: 4
Ratio [4]: 2
Ratio [5]: 4
Ratio [6]: 4
Ratio [7]: 4
Ratio [8]: 16
Ratio [9]: >16
Ratio [10]: 2
Ratio [11]: 4
Ratio [12]: 4
MIC [13]: 0.016 µg/mL (≈ 0.0336 µM)
MIC [14]: 0.008 µg/mL (≈ 0.0168 µM)
Ratio [15]: 4
Ratio [16]: 4
MIC [17]: 0.008 µg/mL (≈ 0.0168 µM)
Ratio [18]: 2
Ratio [19]: 8
Ratio [20]: 8
Ratio [21]: 8
Ratio [22]: 2
MIC [23]: 0.008 µg/mL (≈ 0.0168 µM)
Ratio [24]: 16
Ratio [25]: 8
Ratio [26]: 16
Ratio [27]: 16

C[C@@H](O)[C@H]1C(=O)N2C(C(=O)O)=C(S[C@@H]3CN[C@H](CNS(N)(=O)=O)C3)[C@H](C)[C@H]12 [DORIPENEM]
Ratio [1]: 2
Ratio [2]: 4
MPC [28]: 64 µg/mL
MIC [29]: 0.5 µg/mL (≈ 1.19 µM)
Ratio [3]: 4
MIC [30]: 2 µg/mL (≈ 4.76 µM)
MIC [31]: 4 µg/mL (≈ 9.51 µM)
Ratio [4]: 4
Ratio [5]: 2
Ratio [6]: 2
MIC [32]: 0.5 µg/mL (≈ 1.19 µM)
MIC [33]: 4 µg/mL (≈ 9.51 µM)
MIC [34]: 2 µg/mL (≈ 4.76 µM)
Ratio [7]: 2
Ratio [8]: 4
Ratio [9]: 4
Ratio [10]: 2
Ratio [11]: 2
MIC [35]: 1 µg/mL (≈ 2.38 µM)
Ratio [12]: 4
MPC [36]: 64 µg/mL
MIC [13]: 0.03 µg/mL (≈ 0.0713 µM)
MIC [37]: 0.5 µg/mL (≈ 1.19 µM)
MIC [14]: 0.03 µg/mL (≈ 0.0713 µM)
MIC [38]: 2 µg/mL (≈ 4.76 µM)
MIC [39]: 0.5 µg/mL (≈ 1.19 µM)
Ratio [15]: >16
MIC [40]: 0.25 µg/mL (≈ 0.595 µM)
Ratio [16]: 2
MIC [41]: 0.25 µg/mL (≈ 0.595 µM)
MIC [17]: 0.03 µg/mL (≈ 0.0713 µM)
MIC [42]: 2 µg/mL (≈ 4.76 µM)
Ratio [18]: 2
Ratio [19]: 16
MIC [43]: 0.5 µg/mL (≈ 1.19 µM)
MIC [44]: 0.5 µg/mL (≈ 1.19 µM)
Ratio [20]: 4
Ratio [21]: >16
MIC [45]: 0.5 µg/mL (≈ 1.19 µM)
Ratio [22]: 2
MIC [23]: 0.03 µg/mL (≈ 0.0713 µM)
MIC [46]: 0.25 µg/mL (≈ 0.595 µM)
Ratio [24]: 2
Ratio [25]: >16
MIC [47]: 4 µg/mL (≈ 9.51 µM)
MIC [48]: 0.5 µg/mL (≈ 1.19 µM)
Ratio [26]: 8
Ratio [27]: 8
